Data reported in patent US20170129916A1, “NOVEL BETULINIC PROLINE IMIDAZOLE DERIVATIVES AS HIV INHIBITORS” (HETERO RESEARCH FOUNDATION, priority 2014, published 2017).

Experiments:
[1] = test system: HIV-1 strains, for e.g., 92HT599; test: Antiviral activity: p24 estimation in MT-2 cells infected with HIV-1; format: cell-based; settings: Human immunodeficiency virus 1, MT2, MT-2 cells infected with HIV-1, p24, ~96 hours; for IC50: read-out: Antiviral activity IC50 (nM) Efficacy IC50
Protocol: MT-2 cells were infected with required number of TCID50's of HIV-1 strains, for e.g., 92HT599. The infected cells were plated at the concentration of 30, 000 cells per well in a 96 well plate. Test compound was added to the 96 well plate with the final concentration of DMSO (vehicle—not more than 1%). The plates are then incubated in a CO2 incubator for ˜96 hours (˜4 days) for viral infection. At the end of incubation period an aliquot from each well was taken for p24 estimation. The quantitation of p24 is an estimated index for antiviral activity of the compound. Percent inhibition was calculated with reference to control values (vehicle controls).
p-24 estimation was carried out using Advance biosciences kit as per the procedure detailed by supplier.

[2] = Single dose oral pharmacokinetic study; format: in vivo; settings: mouse, mice, 30 mg/kg, plasma; for AUC(0-t): read-out: Mice oral PK @30 mg/kg AUC 0-t; for Cmax: read-out: Mice oral PK @30 mg/kg Cmax
Protocol: The test item was administered through oral route to animals (rat/mice) at 30 mg/kg dose in a suitable vehicle at 10 ml/kg dose volume. Blood samples (˜50 uL at each time point) were collected from retro-orbital plexus using K3 EDTA as anticoagulant in eppend; orf tubes at defined time intervals under light ether anesthesia. The samples were centrifuged at 3500×g to separate plasma and stored at −80° C. until analysis.
Sample analysis: Test samples were analyzed using LC-MS-MS after developing fit-for-purpose method for each of test compound.

Row | SMILES | inhibition at 0.1 µM [1] [%] | inhibition at 1 µM [1] [%] | IC50 [1] [nM] | AUC(0-t) [2] [µg·h/mL] | Cmax [2] [ng/mL]
1 | C=C(C)[C@@H]1CC[C@]2(C(=O)N3CCC[C@H]3c3nc(-c4cccc(Cl)c4)c[nH]3)CC[C@]3(C)[C@H](CC[C@@H]4[C@@]5(C)CC[C@H](OC(=O)[C@H]6C[C@@H](C(=O)O)C6(C)C)C(C)(C)[C@@H]5CC[C@]43C)[C@@H]12 [Compound 28, (1R,3S)-3-((((1R,3aS,5aR,5bR,7aR,9S,11aR,11bR,13aR,13bR)-3a-((S)-2-(4-(3-chlorophenyl)-1H-imidazol-2-yl)pyrrolidine-1-carbonyl)-5a,5b,8,8,11a-pentamethyl-1-(prop-1-en-2-yl)icosahydro-1H-cyclopenta[a]chrysen-9-yl)oxy)carbonyl)-2,2-dimethylcyclobutane-1-carboxylic acid] | 54 | 99 | 19.4 | 248 | 10000
2 | C=C(C)[C@@H]1CC[C@]2(C(=O)N3CCC[C@H]3c3nc(-c4ccccc4)co3)CC[C@]3(C)[C@H](CC[C@@H]4[C@@]5(C)CC[C@H](OC(=O)[C@H]6C[C@@H](C(=O)O)C6(C)C)C(C)(C)[C@@H]5CC[C@]43C)[C@@H]12 [Compound 17, (1R,3S)-2,2-dimethyl-3-((((1R,3aS,5aR,5bR,7aR,9S,11aR,11bR,13aR,13bR)-5a,5b,8,8,11a-pentamethyl-3a-((S)-2-(4-phenyloxazol-2-yl)pyrrolidine-1-carbonyl)-1-(prop-1-en-2-yl)icosahydro-1H-cyclopenta[a]chrysen-9-yl)oxy)carbonyl)cyclobutane-1-carboxylic acid] | – | – | 58.6 | 219 | 7090
3 | CC(C)(CC(=O)O[C@H]1CC[C@]2(C)[C@H]3CC[C@@H]4[C@H]5[C@H](C6(C)CC6)CC[C@]5(C(=O)N5CCC(c6ncc(-c7ccccc7)[nH]6)CC5)CC[C@@]4(C)[C@]3(C)CC[C@H]2C1(C)C)C(=O)O [Compound 68, 2,2-dimethyl-4-oxo-4-(((1R,3aS,5aR,5bR,7aR,9S,11aR,11bR,13aR,13bR)-5a,5b,8,8,11a-pentamethyl-1-(1-methylcyclopropyl)-3a-(4-(5-phenyl-1H-imidazol-2-yl)piperidine-1-carbonyl)icosahydro-1H-cyclopenta[a]chrysen-9-yl)oxy)butanoic acid] | – | – | 12.8 | 23.5 | 2020
4 | C=C(C)[C@@H]1CC[C@]2(C(=O)N3CCC[C@H]3c3ncc(-c4ccccc4)[nH]3)CC[C@]3(C)[C@H](CC[C@@H]4[C@@]5(C)CC[C@H](OC(=O)C6C(C(=O)O)C6(C)C)C(C)(C)[C@@H]5CC[C@]43C)[C@@H]12 (stereo partly drawn) [Compound 22, 2,2-di methyl-3-((((1R,3aS,5aR,5bR,7aR,9S,11aR,11bR,13aR,13bR)-5a,5b,8,8,11a-pentamethyl-3a-((S)-2-(5-phenyl-1H-imidazol-2-yl)pyrrolidine-1-carbonyl)-1-(prop-1-en-2-yl)-icosahydro-1H-cyclopenta[a]chrysen-9-yl)oxy)carbonyl)cyclopropane-1-carboxylic acid] | – | – | 1000 | – | –
5 | CC1([C@@H]2CC[C@]3(C(=O)N4CCC[C@H]4c4nc5ccccc5[nH]4)CC[C@]4(C)[C@H](CC[C@@H]5[C@@]6(C)CC[C@H](OC(=O)[C@H]7C[C@@H](C(=O)O)C7(C)C)C(C)(C)[C@@H]6CC[C@]54C)[C@@H]23)CC1 [Compound 61, (1R,3S)-3-((((1R,3aS,5aR,5bR,7aR,9S,11aR,11bR,13aR,13bR)-3a-((S)-2-(1H-benzo[d]imidazol-2-yl)pyrrolidine-1-carbonyl)-5a,5b,8,8,11a-pentamethyl-1-(1-methylcyclopropyl)icosahydro-1H-cyclopenta[a]chrysen-9-yl)oxy)carbonyl)-2,2-dimethylcyclobutane-1-carboxylic acid] | 100 | 100 | 56.9 | – | –
6 | C=C(C)[C@@H]1CC[C@]2(C(=O)N3CCC[C@H]3c3nc(C(C)(C)C)c[nH]3)CC[C@]3(C)[C@H](CC[C@@H]4[C@@]5(C)CC[C@H](OC(=O)[C@H]6C[C@@H](C(=O)O)C6(C)C)C(C)(C)[C@@H]5CC[C@]43C)[C@@H]12 [Compound 18, (1R,3S)-3-((((1R,3aS,5aR,5bR,7aR,9S,11aR,11bR,13aR,13bR)-3a-((S)-2-(4-(tert-butyl)-1H-imidazol-2-yl)pyrrolidine-1-carbonyl)-5a,5b,8,8,11a-pentamethyl-1-(prop-1-en-2-yl)icosahydro-1H-cyclopenta[a]chrysen-9-yl)oxy)carbonyl)-2,2-dimethylcyclobutane-1-carboxylic acid] | – | – | 35.8 | 409 | 16400
7 | C=C(C)[C@@H]1CC[C@]2(C(=O)N3C[C@H](OC(C)C)C[C@H]3c3nc(-c4ccccc4)c[nH]3)CC[C@]3(C)[C@H](CC[C@@H]4[C@@]5(C)CC[C@H](OC(=O)[C@H]6C[C@@H](C(=O)O)C6(C)C)C(C)(C)[C@@H]5CC[C@]43C)[C@@H]12 [Compound 30, (1R,3S)-3-((((1R,3aS,5aR,5bR,7aR,9S,11aR,11bR,13aR,13bR)-3a-((2S,4R)-4-isopropoxy-2-(4-phenyl-1H-imidazol-2-yl)pyrrolidine-1-carbonyl)-5a,5b,8,8,11a-pentamethyl-1-(prop-1-en-2-yl)icosahydro-1H-cyclopenta[a]chrysen-9-yl)oxy)carbonyl)-2,2-dimethylcyclobutane-1-carboxylic acid] | 61 | 99 | 89.6 | – | –
8 | C=C(C)[C@@H]1CC[C@]2(C(=O)N3C[C@H](OCCOC)C[C@H]3c3nc(-c4cccc(F)c4)c[nH]3)CC[C@]3(C)[C@H](CC[C@@H]4[C@@]5(C)CC[C@H](OC(=O)CC(C)(C)C(=O)O)C(C)(C)[C@@H]5CC[C@]43C)[C@@H]12 [Compound 44, 4-(((1R,3aS,5aR,5bR,7aR,9S,11aR,1bR,13aR,13bR)-3a-((2S,4R)-2-(4-(3-fluorophenyl)-1H-imidazol-2-yl)-4-(2-methoxyethoxy)pyrrolidine-1-carbonyl)-5a,5b,8,8,11a-pentamethyl-1-(prop-1-en-2-yl)icosahydro-1H-cyclopenta[a]chrysen-9-yl)oxy)-2,2-dimethyl-4-oxo butanoic acid] | – | – | 27.6 | – | –
9 | C=C(C)[C@@H]1CC[C@]2(C(=O)N3CCC[C@H]3c3nc(-c4ccccc4)c(C)[nH]3)CC[C@]3(C)[C@H](CC[C@@H]4[C@@]5(C)CC[C@H](OC(=O)[C@H]6C[C@@H](C(=O)O)C6(C)C)C(C)(C)[C@@H]5CC[C@]43C)[C@@H]12 [Compound 13, (1R,3S)-2,2-dimethyl-3-((((1R,3aS,5aR,5bR,7aR,9S,11aR,11bR,13aR,13bR)-5a,5b,8,8,11a-pentamethyl-3a-((S)-2-(5-methyl-4-phenyl-1H-imidazol-2-yl)pyrrolidine-1-carbonyl)-1-(prop-1-en-2-yl)icosahydro-1H-cyclopenta[a]chrysen-9-yl)oxy)carbonyl)cyclobutane-1-carboxylic acid] | – | – | 4.9 | – | –
10 | C=C(C)[C@@H]1CC[C@]2(C(=O)N3CCC[C@H](c4ncc(-c5ccccc5)[nH]4)C3)CC[C@]3(C)[C@H](CC[C@@H]4[C@@]5(C)CC[C@H](OC(=O)[C@H]6C[C@@H](C(=O)O)C6(C)C)C(C)(C)[C@@H]5CC[C@]43C)[C@@H]12 [Compound 20, (1R,3S)-2,2-dimethyl-3-((((1R,3aS,5aR,5bR,7aR,9S,11aR,11bR,13aR,13bR)-5a,5b,8,8,11a-pentamethyl-3a-((S)-3-(5-phenyl-1H-imidazol-2-yl)piperidine-1-carbonyl)-1-(prop-1-en-2-yl)icosahydro-1H-cyclopenta[a]chrysen-9-yl)oxy)carbonyl)cyclobutane-1-carboxylic acid] | – | – | 58.4 | – | –
11 | C=C(C)[C@@H]1CC[C@]2(C(=O)N3C[C@H](OCCOC)C[C@H]3c3nc(-c4ccc(F)cc4)c[nH]3)CC[C@]3(C)[C@H](CC[C@@H]4[C@@]5(C)CC[C@H](OC(=O)[C@H]6C[C@@H](C(=O)O)C6(C)C)C(C)(C)[C@@H]5CC[C@]43C)[C@@H]12 [Compound 9, (1R,3S)-3-((((1R,3aS,5aR,5bR,7aR,9S,11aR,11bR,13aR,13bR)-3a-((2S,4R)-2-(4-(4-fluorophenyl)-1H-imidazol-2-yl)-4-(2-methoxyethoxy)pyrrolidine-1-carbonyl)-5a,5b,8,8,11a-pentamethyl-1-(prop-1-en-2-yl)icosahydro-1H-cyclopenta[a]chrysen-9-yl)oxy)carbonyl)-2,2-dimethylcyclobutane-1-carboxylic acid] | – | – | 5.52 | – | –
